Reference: USRE39634E1, “Bisarylimidazoly fatty acid amide hydrolase inhibitors” (Bristol-Myers Squibb Company, priority 2001, dated 2007)

Experiments:
[1] = molecular target: T1, human FAAH (Homo sapiens, UniProt O00519); experiment: Determination of FAAH activity (membrane homogenates of H4-FAAH cells, [3H]-anandamide hydrolysis); type: biochemical; settings: transfected human FAAH, H4-FAAH cell membranes, 10 μM anandamide, room temperature, one hour
T1 construct: expressed in transfected cells; host or cells: H4 cells stably transfected with human FAAH (Geneticin selection); crude membrane homogenates
T1 sequence (O00519 1-579): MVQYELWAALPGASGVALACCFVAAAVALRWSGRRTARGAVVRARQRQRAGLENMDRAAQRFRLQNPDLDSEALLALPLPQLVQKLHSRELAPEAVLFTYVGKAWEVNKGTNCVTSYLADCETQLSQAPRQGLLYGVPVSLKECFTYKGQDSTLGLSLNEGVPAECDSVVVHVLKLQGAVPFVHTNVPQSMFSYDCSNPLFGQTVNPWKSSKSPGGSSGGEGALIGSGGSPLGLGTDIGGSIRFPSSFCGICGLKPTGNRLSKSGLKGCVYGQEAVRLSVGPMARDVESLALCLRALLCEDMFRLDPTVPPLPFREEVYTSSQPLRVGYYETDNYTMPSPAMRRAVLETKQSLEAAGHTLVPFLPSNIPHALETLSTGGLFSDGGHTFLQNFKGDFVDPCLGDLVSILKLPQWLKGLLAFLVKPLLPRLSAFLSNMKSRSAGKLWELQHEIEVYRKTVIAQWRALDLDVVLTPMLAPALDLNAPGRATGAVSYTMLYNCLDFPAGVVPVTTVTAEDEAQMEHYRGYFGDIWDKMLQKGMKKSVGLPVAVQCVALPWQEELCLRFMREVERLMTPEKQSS
Protocol: Homogenates of crude membranes were prepared from H4 cells that express transfected human FAAH (H4-FAAH cells). Briefly, cells were grown in DMEM supplemented with 10% FBS and Geneticin at a final concentration of 500 μg/ml (Gibco BRL, Rockville, Md.). Confluent cultures of H4-FAAH cells were rinsed twice with phosphate-buffered saline [138 mM NaCl, 4.1 mM KCl, 5.1 mM Na2PO4, 1.5 mM KH2PO4 (pH 7.5), 37° C.] and incubated for 5-10 min. at 4° C. in lysis buffer [1 mM sodium bicarbonate]. Cells were transferred from plates to polypropylene tubes (16×100 mm), homogenized and centrifuged at 32,000×g for 30 min. Pellets were resuspended by homogenization in lysis buffer and centrifuged at 32,000×g for 30 min. Pellets were resuspended in lysis buffer (15-20 μg protein/ml) then stored at −80° C. until needed. On the day of an experiment, membranes were diluted to 2.67 μg protein/ml in 125 mM Tris-Cl, pH 9.0
Activity of FAAH was measured using a modification of the method described by Omeir et al., 1995 (Life Sci 56:1999, 1995). Membrane homogenates (240 ng protein) were incubated at room temperature for one hour with 1.67 nM anandamide [ethanolamine 1-^3H] (American Radiolabeled Chemical Inc., St Louis, Mo.) and 10 μM anandamide (Sigma/RBI, St. Louis, Mo.) in the absence and presence of inhibitors. The reaction was stopped by the addition of 1 volume of a solution of methanol and dichloroethane (1:1). The mixture was shaken and then centrifuged at 1000×g for 15 min. to separate the aqueous and organic phases. An aliquot of the aqueous phase, containing [^3H]-ethanolamine was withdrawn and counted by scintillation spectroscopy. Data were expressed as the percentage of [^3H]-ethanolamine formed versus vehicle, after subtraction of the background radioactivity determined in the presence of 10 μM arachidonyl trifluoromethyl ketone (ATFMK), an inhibitor of FAAH. IC50 values were determined using a four-parameter logistic equation for dose-response curves.

[2] = system: rat; experiment: Rat formalin test (acute and chronic chemo-induced pain); type: in vivo
Protocol: FIG. 1A illustrates results from a rat formalin model used for testing acute chemo-induced pain. The single asterisk (*) applies when p is less than 0.05.
FIG. 1B illustrates results from a rat formalin model used for testing chronic chemo-induced pain. The single asterisk (*) applies when p is less than 0.05.
In FIG. 1., example 1, was active in phase I (acute phase) and phase II (chronic phase) of the rat formalin test. In animals that received 25 mg/kg, i.v, of Example 1, the number of paw flinches was reduced by nearly 40% in the first 10 minutes after administration of formalin. Paw flinches were reduced by approximately 30% over the following 50 minutes.

[3] = system: animals; experiment: Hargreaves Test (acute thermal pain); type: in vivo; settings: FIG. 2
Description: FIG. 2 illustrates results from the Hargreaves Test used for measuring acute thermal pain. The single asterisk (*) applies when p is less than 0.05 whereas the double asterisk (**) applies when p is less than 0.01. n=6.

[4] = system: animals with a neuropathic injury; experiment: Chung model of neuropathic pain; type: in vivo
Description: FIG. 3 illustrates results from the Chung Model used for measuring neuropathic pain. The single asterisk (*) applies when p is less than 0.05 whereas the double asterisk (**) applies when p is less than 0.01. n=9-10.

Cc1nc(-c2ccccc2)c(-c2ccccc2)n1CCCCCCNC(=O)Oc1ccccc1F [Example 1, [6-(2-Methyl-4,5-diphenyl-imidazol-1-yl)-hexyl]-carbamic acid 2-fluoro-phenyl ester]
IC50 [1]: < 10 nM | reduction of number of paw flinches ([2]; 25 mg/kg, i.v., first 10 minutes after administration of formalin): ~40% | reduction of paw flinches ([2]; 25 mg/kg, i.v., following 50 minutes): approximately 30% | activity in phase I (acute phase) and phase II (chronic phase) of the rat formalin test ([2]; FIG. 1): active | latency to paw withdrawal [3]: increased significantly | onset of anti-neuropathic effect ([4]; 20 mg/kg, versus 100 mg/kg gabapentin): earlier onset of action compared to 100 mg/kg gabapentin | threshold for withdrawal of the injured paw ([4]; light touch stimulus, FIG. 3): increased (toward normal) in a dose-dependent fashion

Cc1nc(-c2ccccc2)c(-c2ccccc2)n1CCCCCCNC(=O)Oc1ccccc1 [Example 9]
IC50 [1]: < 10 nM

Cc1nc(-c2ccccc2)c(-c2ccccc2)n1CCCCCCNC(=O)Oc1ccc(Cl)cc1 [Example 12, [6-(2-Methyl-4,5-diphenyl-imidazol-1-yl)-hexyl]-carbamic acid 4-chloro-phenyl ester]
IC50 [1]: < 10 nM

Cc1nc(-c2ccccc2)c(-c2ccccc2)n1CCOc1ccc(NC(=O)Oc2ccc(F)cc2)cc1 [Example 62, {4-[2-(2-Methyl-4,5-diphenyl-imidazol-1-yl)-ethoxy]-phenyl}-carbamic acid 4-fluoro-phenyl ester]
IC50 [1]: 1000 to 10000 nM

Cc1nc(-c2ccccc2)c(-c2ccccc2)n1CCOc1ccc(NC(=O)Oc2ccc(Cl)cc2)cc1 [Example 53, {4-[2-(2-Methyl-4,5-diphenyl-imidazol-1-yl)-ethoxy]-phenyl}-carbamic acid 4-chloro-phenyl ester]
IC50 [1]: 1000 to 10000 nM
